How the values were obtained:
[1] = biological target: T1, purified mite allergens "Der f1" (Dermatophagoides farinae, UniProt P16311); assay: Immunostaining of purified mite allergens supported on a PVDF membrane after treatment using the test drug; assay type: biochemical; settings: two hours at normal temperature, vs PBS (−); for properties enabling recognition by the specific antibodies (anti-Der f1 monoclonal antibodies), immunostaining: test example 3, 30 v/v % hydrogen peroxide water, 10 mM hydrochloric acid (pH 2); for capacity for recognition by the specific antibodies (anti-Der f1 monoclonal antibodies), immunostaining: 5 ppm Bi-jia water, 5 ppm sodium hypochlorite, 6M guanidine
T1 construct: purchased ITEA Inc
T1 sequence (P16311 99-321): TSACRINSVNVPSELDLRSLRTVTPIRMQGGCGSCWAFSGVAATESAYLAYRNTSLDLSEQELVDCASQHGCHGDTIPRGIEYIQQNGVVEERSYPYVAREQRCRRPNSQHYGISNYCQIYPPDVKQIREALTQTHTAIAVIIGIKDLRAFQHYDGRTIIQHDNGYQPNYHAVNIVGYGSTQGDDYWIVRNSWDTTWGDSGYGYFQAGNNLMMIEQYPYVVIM
Description: (3-1. PVDF membrane) • A PVDF membrane (pore diameter: 0.45 μm) was immersed in methanol to be made hydrophilic, after which a prescribed quantity of allergens was blotted onto the PVDF membrane in a dot formation (0-100 ng/dot).
(4. Treatment using test drug) • The allergen-supporting membrane was washed three times using PBS (−). • The membrane was placed in a plastic container and immersed in 5 mL of a solution containing the test drug. • The membrane was allowed to stand for two hours at normal temperature. • The solution of the test drug was discarded, and the membrane was washed three times using PBS (−). • Protein staining or immunostaining was carried out.
(6. Immunostaining) • The allergen-supporting membrane (after “4. Treatment using test drug” described above) was immersed in 1 w/v % gelatin-containing PBS and was blocked for ten minutes at 37° C. • The blocking liquid was discarded, and the membrane was washed three times using PBS (−). • Primary antibodies were diluted using 1 w/v % BSA-containing PBST (0.02 v/v % Tween-20) so as to reach a concentration of 1 μg/mL, 2 mL of the primary antibodies was added to the blocked membrane, and a reaction was carried out for 30 minutes at normal temperature while the membrane was shaken. • A primary antibody reaction solution was discarded, and the membrane was washed three times using PBST. • HRP-labeled secondary antibodies (product name “HRP-Goat anti-Mouse IgG,” made by Zymed Laboratories) were diluted using 1 w/v % BSA-containing PBST (0.02 v/v % Tween-20) so as to reach a concentration of 3 μg/mL, 2 mL of the secondary antibodies was added to the membrane reacted with the primary antibodies, and a reaction was carried out for 30 minutes at normal temperature while the membrane was shaken. • A secondary antibody reaction solution was discarded, and the membrane was washed four times using PBST. • An amount of 1 mL of a coloring reagent solution (product name “Ez West Blue,” made by ATTO Co., Ltd.) was added to the membrane reacted with the secondary antibodies, and a reaction was carried out for ten minutes. • The membrane was washed using a large amount of distilled water, and the reaction was stopped. • The membrane was allowed to spontaneously dry.
(§1) Specifically, purified mite allergens were dot-blotted in an amount of 0, 12.5, 25, 50, or 100 ng onto a single PVDF membrane cut into a rectangular strip to produce an allergen-supporting membrane. Two identical allergen-supporting membranes were provided in this manner. First, the two allergen-supporting membranes were treated using the same test drug, a washing treatment using PBS was furthermore carried out, and then one of the treated membranes was supplied for protein staining using the gold stain and the other of the treated membranes was supplied for immunostaining using the anti-Der f1 monoclonal antibodies.
as §1, with “4, 20,” for “12.5, 25, 50,”, “antibodies. […]” for “antibodies.”

[2] = test system: extract from the grass Phleum pratense, the weed Plantago lanceolata, or house dust containing Dermatophagoides pteronyssinus; settings: extract treated using a 1% aqueous solution of tannic acid; cited from earlier work
[3] = biological target: T2, purified Japanese cedar pollen allergens "Cry j1" (Cryptomeria japonica, UniProt P18632); assay: Immunostaining of Cry j1 on multiscreen filter plate with PVDF filter membrane after treatment using the test drug; assay type: biochemical; settings: test example 9, two hours at normal temperature, 0.1% SDS, 6M guanidine, other drugs of FIG. 16, vs PBS
T2 construct: purchased ITEA Inc
T2 sequence (P18632 22-374): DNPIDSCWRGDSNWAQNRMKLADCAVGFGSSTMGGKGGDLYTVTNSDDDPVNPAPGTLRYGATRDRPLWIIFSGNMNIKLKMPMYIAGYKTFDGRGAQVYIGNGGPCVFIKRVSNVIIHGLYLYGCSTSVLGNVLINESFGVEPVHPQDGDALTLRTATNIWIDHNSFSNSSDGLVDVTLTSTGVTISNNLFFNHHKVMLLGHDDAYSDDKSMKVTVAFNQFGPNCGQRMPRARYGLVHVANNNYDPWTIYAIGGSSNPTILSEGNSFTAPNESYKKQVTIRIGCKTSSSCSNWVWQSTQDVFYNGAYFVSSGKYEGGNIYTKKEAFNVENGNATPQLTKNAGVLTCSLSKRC
Excerpt: […]

[4] = biological target: T2, purified Japanese cedar pollen allergens "Cry j1"; assay: Immunostaining of Cry j1 on multiscreen filter plate with cellulose mixed ester filter membrane after treatment using the test drug; assay type: biochemical; settings: test example 8, two hours at normal temperature, 5 ppm NaClO (Bi-jia water), 6M guanidine, other drugs of FIG. 15, vs PBS
Description: A test for evaluating allergen inactivators was conducted using, as an allergen support, a multiscreen filter plate (MultiScreen HTS HA sterile plate, Millipore, #MSHAS4510) provided with a filter membrane composed of a cellulose mixed ester (substance similar to nitrocellulose) in each well. Specifically, as per the main points of the operational procedure for the test shown in FIG. 6, a test was conducted in accordance with the following protocol.
(1. Formulation of Allergen-Supporting Membrane and Treatment Carried Out Using Test Drug) • An amount of 2 μL of purified Japanese cedar pollen allergens (product name “Cry j1”) (made by ITEA Inc.) (origin: Japanese cedar (Cryptomeria japonica)) in each stage of dilution (50, 10, 2, or 0 ng/μL) was added dropwise into each well of the multiscreen filter plate and was allowed to spontaneously dry. • Filtration washing was carried out three times using 200 μL of PBS. • An amount of 200 μL of the drugs being examined (the various drugs being examined, and concentrations thereof, shown in FIG. 15; PBS as a control) was added, and the multiscreen filter plate was allowed to stand for two hours at normal temperature. • The drugs being examined were removed through pipetting. • Filtration washing was carried out three times using 200 μL of PBS. • To immunostaining or gold staining […]

[5] = PVDF membrane, 0, 4, 20, 100 ng/dot
[6] = test example 2, PVDF membrane, 0, 4, 20, 100 ng/dot, 0.1 w/v % SDS

Compound: Cl [hydrochloric acid]
- properties enabling recognition by the specific antibodies (anti-Der f1 monoclonal antibodies), immunostaining [1, 5]: weakened

Compound: O=C(OC[C@H]1O[C@@H](OC(=O)c2cc(O)c(O)c(OC(=O)c3cc(O)c(O)c(O)c3)c2)[C@H](OC(=O)c2cc(O)c(O)c(OC(=O)c3cc(O)c(O)c(O)c3)c2)[C@@H](OC(=O)c2cc(O)c(O)c(OC(=O)c3cc(O)c(O)c(O)c3)c2)[C@@H]1OC(=O)c1cc(O)c(O)c(OC(=O)c2cc(O)c(O)c(O)c2)c1)c1cc(O)c(O)c(OC(=O)c2cc(O)c(O)c(O)c2)c1 [tannic acid]
- allergenicity in a cutaneous reaction test [2]: allergenicity can be mitigated

Compound: OCl [sodium hypochlorite]
- capacity for recognition by the specific antibodies (anti-Der f1 monoclonal antibodies), immunostaining ([1]; test example 1, PVDF membrane, 0-100 ng/dot): notably weakened
- capacity for recognition by the specific antibodies (anti-Der f1 monoclonal antibodies), immunostaining [1, 6]: notably weakened

Compound: CCCCCCCCCCCCOS(=O)(=O)[O-].[Na+] [SDS]
- capacity for recognition by the specific antibodies (anti-Cry j1 monoclonal antibodies), immunostaining [3]: notably weakened
- capacity for recognition by the specific antibodies (anti-Der f1 monoclonal antibodies), immunostaining [1, 6]: notably weakened

Compound: OO [hydrogen peroxide water, hydrogen peroxide]
- properties enabling recognition by the specific antibodies (anti-Der f1 monoclonal antibodies), immunostaining [1, 5]: weakened

Compound: N=C(N)N [guanidine]
- capacity for recognition by the specific antibodies (anti-Cry j1 monoclonal antibodies), immunostaining [4]: notably weakened
- capacity for recognition by the specific antibodies (anti-Cry j1 monoclonal antibodies), immunostaining [3]: notably weakened
